In patent publication US20240252673A1, “ANTI-TISSUE FACTOR ANTIBODY-DRUG CONJUGATES AND THEIR USE IN THE TREATMENT OF CANCER” (priority 2017, published 2024):

Tests used:
Assay type in all cases: in vivo, human
[1] = test system: tisotumab vedotin treated patients; assay: Adverse events of special interest reported in tisotumab vedotin treated patients
Text: Three adverse events of special interest are ocular adverse events, adverse events of peripheral neuropathy, and adverse events of bleeding. […] Severe cases (CTCAE grade 3) of conjunctivitis and keratitis are observed, however implementation of a comprehensive mitigation plan and preventive measures substantially reduce both the frequency and severity of ocular adverse reactions. In order to prevent ocular AEs, the following ocular pre-medication guidelines are followed: use of preservative-free lubricating eye drops from the start of treatment with tisotumab vedotin until the end of treatment; avoid use of contact lenses while treated with tisotumab vedotin; use of refrigerator-based eye cooling pads during infusion, e.g. THERA PEARL Eye Mask or similar, to be applied immediately before infusion in accordance with the instructions provided with the eye cooling pads; administration of local ocular vasoconstrictor before infusion (brimonidine tartrate 0.2% eye drops or similar, 3 drops in each eye immediately prior to start of infusion; otherwise to be used in accordance with the product prescribing information).
A mitigation plan, including dose reduction (see Table 9) and dose delay (i.e., hold dosing until event has improved to ≤grade 1), is in place to prevent onset of peripheral neuropathy as well as deterioration of pre-existing conditions. For AEs of bleeding: Bleeding events are considered of special interest due to the mode of action of tisotumab vedotin. […] Excluding epistaxis, no causal relation has been established for the majority of the reported bleeding events and treatment with tisotumab vedotin.

[2] = test system: relapsed, recurrent and/or metastatic cervical cancer; assay: Phase IIa single arm trial: anti-tumor activity per RECIST v1.1
[3] = Phase I/II dose-escalation study: plasma pharmacokinetics; conditions: cycle 1, plasma, geometric mean (% CV)
Procedure: (§1) A first-in-human phase I/II dose-escalating study following a 3+3 dose-escalation design was conducted in order to test the safety of tisotumab vedotin in 27 subjects with locally advanced and/or metastatic cancer of various types including cervical cancer (FIG. 2). Tisotumab vedotin was administered by intravenous infusion at doses ranging from 0.3 mg/kg to 2.2 mg/kg on day 1 of a 21-day cycle for four cycles (i.e., each treatment cycle was 3 weeks). Patients with stable disease (SD) or better at the end of four cycles had the option to continue treatment with tisotumab vedotin for eight additional cycles (FIG. 2). Tumor evaluations were performed by CT scans every six weeks. In order to qualify for SD, results of the CT scan scheduled for week six needed to be SD or better. Two CT scans were performed outside the per-protocol defined window.
(§2) A primary objective of the study was to assess the safety and tolerability in a mixed population of patients with specified solid tumors. Adverse event (AE) severity was graded according to Common Terminology Criteria for Adverse Events (CTCAE) version 4.03. Secondary objectives of the study included determining the pharmacokinetic (PK) profile of tisotumab vedotin and preliminary evaluation of anti-tumor activity as assessed according to Response Evaluation Criteria in Solid Tumors [RECIST] version 1.1. Dose-limiting toxicities (DLTs) were determined during the first cycle and were defined as grade≥3 events possibly related to tisotumab vedotin. […] Tumor biopsies were required at baseline for TF expression which was assessed by immunohistochemistry utilizing tisotumab. TF staining intensity was determined using the H-scoring system.
The geometric means (% CV) of the time to reach Cmax (Tmax)(hr), maximum concentration (Cmax)(ng/mL), and area under the concentration time curve (AUC)0-t (hr*ng/mL) was measured for the pharmacokinetics (PK) portion of the study (Table 3). Low levels of unconjugated MMAE were measured in systemic circulation (FIG. 4).

[4] = test system: locally advanced and/or metastatic cancer of various types including cervical cancer; assay: Phase I/II dose-escalation study: anti-tumor activity per RECIST v1.1 (CT scans every six weeks)
Procedure: as §1, §2

[5] = Patient 2, cervical cancer, 1.2 mg/kg

tisotumab vedotin
AEs of grade 1-2 conjunctivitis ([1]; human, in vivo): frequently reported
impact on activated partial thromboplastin time (aPTT) or prothrombin time (PT) ([1]; human, in vivo): no major impact
peripheral neuropathy, grade of the reported cases ([1]; leading cause of permanent discontinuation): majority of the reported cases are grade 1-2
Epistaxis ([1]; nearly all of the cases are grade 1): most common reported AE
Median DoR ([2]; 2.0 mg/kg q3w, N = 34): 8.3 months
Objective response rate (ORR) ([2]; 2.0 mg/kg q3w, N = 34): 11 n
DCR (CR + PR + SD) ([2]; 2.0 mg/kg q3w, N = 34, clinical benefit after 12 weeks): 17 n
ORR, combined unconfirmed + confirmed ([2]; expanded cohort, all efficacy-evaluable patients, N 51): 16 N
ORR, combined unconfirmed + confirmed ([2]; expanded cohort, all efficacy-evaluable patients, N 51, 95% CI 19-46): 31%
ORR, combined unconfirmed + confirmed ([2]; histology Adenocarcinoma, N 18): 4 N
ORR, combined unconfirmed + confirmed ([2]; histology Adenocarcinoma, N 18, 95% CI 6-48): 22%
ORR, combined unconfirmed + confirmed ([2]; histology Adenosquamous, N 4): 2 N
ORR, combined unconfirmed + confirmed ([2]; histology Adenosquamous, N 4, 95% CI 7-93): 50%
ORR, combined unconfirmed + confirmed ([2]; histology Other, N 2): 1 N
ORR, combined unconfirmed + confirmed ([2]; histology Other, N 2, 95% CI 1-99): 50%
ORR, combined unconfirmed + confirmed ([2]; histology Squamous, N 27): 9 N
ORR, combined unconfirmed + confirmed ([2]; histology Squamous, N 27, 95% CI 17-54): 33%
ORR, combined unconfirmed + confirmed ([2]; prior GOG 240 regimen No, N 14): 4 N
ORR, combined unconfirmed + confirmed ([2]; prior GOG 240 regimen No, N 14, 95% CI 8-58): 29%
ORR, combined unconfirmed + confirmed ([2]; prior GOG 240 regimen Yes, N 37): 12 N
ORR, combined unconfirmed + confirmed ([2]; prior GOG 240 regimen Yes, N 37, 95% CI 18-50): 32%
ORR, combined unconfirmed + confirmed ([2]; prior bevacizumab No, N 11): 4 N
ORR, combined unconfirmed + confirmed ([2]; prior bevacizumab No, N 11, 95% CI 11-69): 36%
ORR, combined unconfirmed + confirmed ([2]; prior bevacizumab Yes, N 40): 12 N
ORR, combined unconfirmed + confirmed ([2]; prior bevacizumab Yes, N 40, 95% CI 17-47): 30%
ORR, combined unconfirmed + confirmed ([2]; prior lines of systemic therapy 1, N 23): 8 N
ORR, combined unconfirmed + confirmed ([2]; prior lines of systemic therapy 1, N 23, 95% CI 16-57): 35%
ORR, combined unconfirmed + confirmed ([2]; prior lines of systemic therapy 2, N 17): 6 N
ORR, combined unconfirmed + confirmed ([2]; prior lines of systemic therapy 2, N 17, 95% CI 14-62): 35%
ORR, combined unconfirmed + confirmed ([2]; prior lines of systemic therapy 3-4, N 11): 2 N
ORR, combined unconfirmed + confirmed ([2]; prior lines of systemic therapy 3-4, N 11, 95% CI 2-52): 18%
ORR, combined unconfirmed + confirmed ([2]; prior taxane No, N 3): 1 N
ORR, combined unconfirmed + confirmed ([2]; prior taxane No, N 3, 95% CI 1-91): 33%
ORR, combined unconfirmed + confirmed ([2]; prior taxane Yes, N 48): 15 N
ORR, combined unconfirmed + confirmed ([2]; prior taxane Yes, N 48, 95% CI 19-46): 31%
AUC0-t ([3]; 0.3 mg/kg, N 3): 59216.8 (3%) hr * ng/ml
Cmax ([3]; 0.3 mg/kg, N 3): 4782.7 (12%) ng/ml
Tmax ([3]; 0.3 mg/kg, N 3): 1.5 (73%) hr
AUC0-t ([3]; 0.6 mg/kg, N 3): 368432.7 (8%) hr * ng/ml
Cmax ([3]; 0.6 mg/kg, N 3): 12195.3 (10%) ng/ml
Tmax ([3]; 0.6 mg/kg, N 3): 1.2 (13%) hr
AUC0-t ([3]; 0.9 mg/kg, N 3): 601926.2 (17%) hr * ng/ml
Cmax ([3]; 0.9 mg/kg, N 3): 19811.6 (17%) ng/ml
Tmax ([3]; 0.9 mg/kg, N 3): 1.3 (12%) hr
AUC0-t ([3]; 1.2 mg/kg, N 3): 1084672.7 (9%) hr * ng/ml
Cmax ([3]; 1.2 mg/kg, N 3): 34673.1 (19%) ng/ml
Tmax ([3]; 1.2 mg/kg, N 3): 1.3 (12%) hr
AUC0-t ([3]; 1.5 mg/kg, N 3): 794988.4 (19%) hr * ng/ml
Cmax ([3]; 1.5 mg/kg, N 3): 23115.6 (21%) ng/ml
Tmax ([3]; 1.5 mg/kg, N 3): 1.1 (9.6%) hr
AUC0-t ([3]; 1.8 mg/kg, N 3): 1504823.8 (50%) hr * ng/ml
Cmax ([3]; 1.8 mg/kg, N 3): 35416.3 (39%) ng/ml
Tmax ([3]; 1.8 mg/kg, N 3): 1.2 (14%) hr
AUC0-t ([3]; 2.0 mg/kg, N 3): 1256379.7 (33%) hr * ng/ml
Cmax ([3]; 2.0 mg/kg, N 3): 32296.1 (22%) ng/ml
Tmax ([3]; 2.0 mg/kg, N 3): 1.2 (8%) hr
AUC0-t ([3]; 2.2 mg/kg, N 6): 2037070.5 (34%) hr * ng/ml
Cmax ([3]; 2.2 mg/kg, N 6): 55530.3 (10%) ng/ml
Tmax ([3]; 2.2 mg/kg, N 6): 1.1 (13%) hr
Confirmed Response per RECIST v1.1: Complete response (CR) ([4]; 0.3 mg/kg (n = 3)): 0 n
Confirmed Response per RECIST v1.1: Not evaluable ([4]; 0.3 mg/kg (n = 3)): 0 n
Confirmed Response per RECIST v1.1: Partial response (PR) ([4]; 0.3 mg/kg (n = 3)): 0 n
Confirmed Response per RECIST v1.1: Complete response (CR) ([4]; 0.6 mg/kg (n = 3)): 0 n
Confirmed Response per RECIST v1.1: Partial response (PR) ([4]; 0.6 mg/kg (n = 3)): 0 n
Confirmed Response per RECIST v1.1: Complete response (CR) ([4]; 0.9 mg/kg (n = 3)): 0 n
Confirmed Response per RECIST v1.1: Not evaluable ([4]; 0.9 mg/kg (n = 3)): 0 n
Confirmed Response per RECIST v1.1: Partial response (PR) ([4]; 0.9 mg/kg (n = 3)): 0 n
Confirmed Response per RECIST v1.1: Complete response (CR) ([4]; 1.2 mg/kg (n = 3)): 0 n
Confirmed Response per RECIST v1.1: Not evaluable ([4]; 1.2 mg/kg (n = 3)): 0 n
Confirmed Response per RECIST v1.1: Complete response (CR) ([4]; 1.5 mg/kg (n = 3)): 0 n
Confirmed Response per RECIST v1.1: Not evaluable ([4]; 1.5 mg/kg (n = 3)): 0 n
Confirmed Response per RECIST v1.1: Partial response (PR) ([4]; 1.5 mg/kg (n = 3)): 0 n
Confirmed Response per RECIST v1.1: Complete response (CR) ([4]; 1.8 mg/kg (n = 3)): 0 n
Confirmed Response per RECIST v1.1: Not evaluable ([4]; 1.8 mg/kg (n = 3)): 0 n
Confirmed Response per RECIST v1.1: Partial response (PR) ([4]; 1.8 mg/kg (n = 3)): 0 n
Confirmed Response per RECIST v1.1: Progressive disease (PD) ([4]; 1.8 mg/kg (n = 3)): 0 n
Confirmed Response per RECIST v1.1: Complete response (CR) ([4]; 2.0 mg/kg (n = 3)): 0 n
Confirmed Response per RECIST v1.1: Not evaluable ([4]; 2.0 mg/kg (n = 3)): 0 n
Confirmed Response per RECIST v1.1: Partial response (PR) ([4]; 2.0 mg/kg (n = 3)): 0 n
Confirmed Response per RECIST v1.1: Complete response (CR) ([4]; 2.2 mg/kg (n = 6)): 0 n
Confirmed Response per RECIST v1.1: Not evaluable ([4]; 2.2 mg/kg (n = 6)): 0 n
Confirmed Response per RECIST v1.1: Partial response (PR) ([4]; 2.2 mg/kg (n = 6)): 0 n
reduction in tumor size relative to baseline ([4]; Patient 1, cervical cancer, 2.2 mg/kg): about 20%
best response [4, 5]: confirmed PR
continued benefit, total duration [4, 5]: 15 months
reduction in tumor size relative to baseline (target lesion) ([4]; Patient 2, stage 4 cervical cancer, 3 prior lines, 1.2 mg/kg): about 51%
Confirmed Response per RECIST v1.1: Complete response (CR) ([4]; all doses (n = 27)): 0 n
disease control rate (DCR; PR+SD) ([4]; all doses, 26 patients evaluated): 46%
patients withdrew from treatment due to disease progression ([4]; all doses, 27 patients): 67%
disease control rate (DCR; PR+SD), patients ([4]; all doses, out of 26 patients): 12 patients
